In patent publication US10582709B2, “Butyrolactones as herbicides” (FMC Corporation, priority 2015, dated 2020):

test system: kochia (Kochia scoparia); assay: Test A postemergence, kochia; assay type: in vivo; conditions: 125 g ai/ha, visual rating after approx. 10 d, 0 to 100 scale, 0 no effect, 100 complete control
Text: (§1) Seeds of plant species selected from barnyardgrass (Echinochloa crus-galli), crabgrass (large crabgrass, Digitaria sanguinalis), kochia (Kochia scoparia), ragweed (common ragweed, Ambrosia elatior), morningglory (Ipomoea spp.), velvetleaf (Abutilon theophrasti), ryegrass, Italian (Italian ryegrass, Lolium multiflorum), foxtail, giant (giant foxtail, Setaria faberii), wheat (Triticum aestivum), corn (Zea mays), and pigweed (Amaranthus retroflexus), were planted into a blend of loam soil and sand and treated preemergence with a directed soil spray using test chemicals formulated in a non-phytotoxic solvent mixture which included a surfactant. At the same time, plants selected from these crop and weed species and also blackgrass (Alopecurus myosuroides), and galium (catchweed bedstraw, Galium aparine), were planted in pots containing the same blend of loam soil and sand and treated with postemergence applications of test chemicals formulated in the same manner. Plants ranged in height from 2 to 10 cm and were in the one- to two-leaf stage for the postemergence treatment. Treated plants and untreated controls were maintained in a greenhouse for approximately 10 d, after which time all treated plants were compared to untreated controls and visually evaluated for injury. Plant response ratings, summarized in Table A, are based on a 0 to 100 scale where 0 is no effect and 100 is complete control. A dash (-) response means no test result.

| SMILES | Plant response rating, Kochia |
| --- | --- |
| O=C(Nc1ccccc1F)C1C(=O)OCC1c1ccc(C(F)(F)F)cc1 (racemic) [Compound 8] | 0 |

same assay, conditions: 500 g ai/ha, visual rating after approx. 10 d, 0 to 100 scale, 0 no effect, 100 complete control

| SMILES | Plant response rating, Kochia |
| --- | --- |
| O=C(Nc1ccccc1F)C1C(=O)OCC1c1ccc(C(F)(F)F)cc1 (racemic) [Compound 8] | 0 |

test system: foxtail, giant (giant foxtail, Setaria faberii); assay: Test A postemergence, giant foxtail; assay type: in vivo; conditions: 125 g ai/ha, visual rating after approx. 10 d, 0 to 100 scale, 0 no effect, 100 complete control
Text: as §1

| SMILES | Plant response rating, Foxtail, Giant |
| --- | --- |
| O=C(Nc1ccccc1F)C1C(=O)OCC1c1ccc(C(F)(F)F)cc1 (racemic) [Compound 8] | 20 |

same assay, conditions: 500 g ai/ha, visual rating after approx. 10 d, 0 to 100 scale, 0 no effect, 100 complete control

| SMILES | Plant response rating, Foxtail, Giant |
| --- | --- |
| O=C(Nc1ccccc1F)C1C(=O)OCC1c1ccc(C(F)(F)F)cc1 (racemic) [Compound 8] | 40 |

test system: kochia (Kochia scoparia); assay: Test A preemergence, kochia; assay type: in vivo; conditions: 125 g ai/ha, visual rating after approx. 10 d, 0 to 100 scale, 0 no effect, 100 complete control
Text: as §1

| SMILES | Plant response rating, Kochia |
| --- | --- |
| O=C(Nc1ccccc1F)C1C(=O)OCC1c1ccc(C(F)(F)F)cc1 (racemic) [Compound 8] | 0 |

same assay, conditions: 500 g ai/ha, visual rating after approx. 10 d, 0 to 100 scale, 0 no effect, 100 complete control

| SMILES | Plant response rating, Kochia |
| --- | --- |
| O=C(Nc1ccccc1F)C1C(=O)OCC1c1ccc(C(F)(F)F)cc1 (racemic) [Compound 8] | 0 |

test system: pigweed (Amaranthus retroflexus); assay: Test A postemergence, pigweed; assay type: in vivo; conditions: 125 g ai/ha, visual rating after approx. 10 d, 0 to 100 scale, 0 no effect, 100 complete control
Text: as §1

| SMILES | Plant response rating, Pigweed |
| --- | --- |
| O=C(Nc1ccccc1F)C1C(=O)OCC1c1ccc(C(F)(F)F)cc1 (racemic) [Compound 8] | 0 |

same assay, conditions: 500 g ai/ha, visual rating after approx. 10 d, 0 to 100 scale, 0 no effect, 100 complete control

| SMILES | Plant response rating, Pigweed |
| --- | --- |
| O=C(Nc1ccccc1F)C1C(=O)OCC1c1ccc(C(F)(F)F)cc1 (racemic) [Compound 8] | 0 |

test system: foxtail, giant (giant foxtail, Setaria faberii); assay: Test A preemergence, giant foxtail; assay type: in vivo; conditions: 125 g ai/ha, visual rating after approx. 10 d, 0 to 100 scale, 0 no effect, 100 complete control
Text: as §1

| SMILES | Plant response rating, Foxtail, Giant |
| --- | --- |
| O=C(Nc1ccccc1F)C1C(=O)OCC1c1ccc(C(F)(F)F)cc1 (racemic) [Compound 8] | 20 |

same assay, conditions: 500 g ai/ha, visual rating after approx. 10 d, 0 to 100 scale, 0 no effect, 100 complete control

| SMILES | Plant response rating, Foxtail, Giant |
| --- | --- |
| O=C(Nc1ccccc1F)C1C(=O)OCC1c1ccc(C(F)(F)F)cc1 (racemic) [Compound 8] | 40 |

test system: ducksalad (Heteranthera limosa); assay: Test B flooded paddy test, ducksalad; assay type: in vivo; conditions: 250 g ai/ha; applied to paddy water at 2-leaf stage; 13 to 15 d; scale 0 no effect to 100 complete control
Method: (§2) Plant species in the flooded paddy test selected from rice (Oryza sativa), sedge, umbrella (small-flower umbrella sedge, Cyperus difformis), ducksalad (Heteranthera limosa), and barnyardgrass (Echinochloa crus-galli) were grown to the 2-leaf stage for testing. At time of treatment, test pots were flooded to 3 cm above the soil surface, treated by application of test compounds directly to the paddy water, and then maintained at that water depth for the duration of the test. Treated plants and controls were maintained in a greenhouse for 13 to 15 d, after which time all species were compared to controls and visually evaluated. Plant response ratings, summarized in Table B, are based on a scale of 0 to 100 where 0 is no effect and 100 is complete control. A dash (-) response means no test result.

| SMILES | Plant response rating, Flood, Ducksalad |
| --- | --- |
| O=C(Nc1ccccc1F)C1C(=O)OCC1c1ccc(C(F)(F)F)cc1 (racemic) [Compound 8] | 30 |

same assay, conditions: 1000 g ai/ha; applied to paddy water at 2-leaf stage; 13 to 15 d; scale 0 no effect to 100 complete control

| SMILES | Plant response rating, Flood, Ducksalad |
| --- | --- |
| O=C(Nc1ccccc1F)C1C(=O)OCC1c1ccc(C(F)(F)F)cc1 (racemic) [Compound 8] | 30 |

test system: ragweed (common ragweed, Ambrosia elatior); assay: Test A postemergence, ragweed; assay type: in vivo; conditions: 125 g ai/ha, visual rating after approx. 10 d, 0 to 100 scale, 0 no effect, 100 complete control
Text: as §1

| SMILES | Plant response rating, Ragweed |
| --- | --- |
| O=C(Nc1ccccc1F)C1C(=O)OCC1c1ccc(C(F)(F)F)cc1 (racemic) [Compound 8] | 0 |

same assay, conditions: 500 g ai/ha, visual rating after approx. 10 d, 0 to 100 scale, 0 no effect, 100 complete control

| SMILES | Plant response rating, Ragweed |
| --- | --- |
| O=C(Nc1ccccc1F)C1C(=O)OCC1c1ccc(C(F)(F)F)cc1 (racemic) [Compound 8] | 0 |

test system: pigweed (Amaranthus retroflexus); assay: Test A preemergence, pigweed; assay type: in vivo; conditions: 125 g ai/ha, visual rating after approx. 10 d, 0 to 100 scale, 0 no effect, 100 complete control
Text: as §1

| SMILES | Plant response rating, Pigweed |
| --- | --- |
| O=C(Nc1ccccc1F)C1C(=O)OCC1c1ccc(C(F)(F)F)cc1 (racemic) [Compound 8] | 0 |

same assay, conditions: 500 g ai/ha, visual rating after approx. 10 d, 0 to 100 scale, 0 no effect, 100 complete control

| SMILES | Plant response rating, Pigweed |
| --- | --- |
| O=C(Nc1ccccc1F)C1C(=O)OCC1c1ccc(C(F)(F)F)cc1 (racemic) [Compound 8] | 0 |

test system: rice (Oryza sativa); assay: Test B flooded paddy test, rice; assay type: in vivo; conditions: 250 g ai/ha; applied to paddy water at 2-leaf stage; 13 to 15 d; scale 0 no effect to 100 complete control
Method: as §2

| SMILES | Plant response rating, Flood, Rice |
| --- | --- |
| O=C(Nc1ccccc1F)C1C(=O)OCC1c1ccc(C(F)(F)F)cc1 (racemic) [Compound 8] | 0 |

same assay, conditions: 1000 g ai/ha; applied to paddy water at 2-leaf stage; 13 to 15 d; scale 0 no effect to 100 complete control

| SMILES | Plant response rating, Flood, Rice |
| --- | --- |
| O=C(Nc1ccccc1F)C1C(=O)OCC1c1ccc(C(F)(F)F)cc1 (racemic) [Compound 8] | 0 |

test system: wheat (Triticum aestivum); assay: Test A postemergence, wheat; assay type: in vivo; conditions: 125 g ai/ha, visual rating after approx. 10 d, 0 to 100 scale, 0 no effect, 100 complete control
Text: as §1

| SMILES | Plant response rating, Wheat |
| --- | --- |
| O=C(Nc1ccccc1F)C1C(=O)OCC1c1ccc(C(F)(F)F)cc1 (racemic) [Compound 8] | 0 |

same assay, conditions: 500 g ai/ha, visual rating after approx. 10 d, 0 to 100 scale, 0 no effect, 100 complete control

| SMILES | Plant response rating, Wheat |
| --- | --- |
| O=C(Nc1ccccc1F)C1C(=O)OCC1c1ccc(C(F)(F)F)cc1 (racemic) [Compound 8] | 0 |
